Measured values taken from US8686022B2, “7-(piperazine-1-ymethyl)-1H-indole-2-carboxylic acid (phenyl)-amide derivatives and allied compounds as p38 MAP kinase inhibitors for the treatment of respiratory diseases” (Boehringer Ingelheim International GmbH, priority 2008, dated 2014).
Values after ≈ are worked out from the molar mass of the structure shown. Values joined by “and” are separate entries in the source; they are usually repeats but may differ in a detail not shown here. Identical values can stand only once.

Legend:
[1] = molecular target: p38 MAP-kinase (Homo sapiens, UniProt Q16539); experiment: p38 MAP-kinase enzymatic assay (phosphorylation of GST-tagged ATF2, chemoluminescence); format: biochemical; details: inhibitor concentration 1 μM, activated p38 MAP-kinase 1 nM, ATP 100 μM; for inhibition at 1 µM: read-out: p38 (% Inh @ 1 μM)
Description: In this, the amount of a substrate phosphorylated by the kinase is quantified. The test is carried out as follows:
The kinase reaction is carried out in the presence of HEPES (20 mM, pH 7), MgCl2 (10 mM), DTT (1 mM) and TWEEN20 (0.01%). First, dimethylsulphoxide or inhibitor (final concentration: 1 μM) dissolved in dimethylsulphoxide are placed in a reaction vessel. Then the activated p38 MAP-kinase (final concentration 1 nM) is added and the mixture is incubated for 4 h at ambient temperature. Then a mixture of substrate (GST-tagged ATF2) and ATP is added and everything is incubated together for a further hour (final concentration ATP: 100 μM; final concentration ATF2: 10 nM).
The concentration of phosphorylated ATF2 is quantified by chemoluminescence-induced light emission. For this, a glutathione donor bead (final concentration: 5 μg/ml) which binds to the gluthathione on the ATF2 and phospho-ATF2 antibodies are added to the reaction mixture (final concentration: 3 nM; this binds the phosphate group added by the kinase reaction) to which a Protein A Acceptor Bead (final concentration: 5 μg/ml) binds. These components are dissolved in a buffer which contains 20 mM HEPES pH 7.0, 200 mM NaCL, 80 mM EDTA as well as 0.3% BSA. This reaction mixture is incubated in the dark for 1 hour at ambient temperature. When these beads come physically close, visible light is emitted which is measured in a photometer at 520-620 nm.
To determine the inhibitory activity of the compounds according to the invention a calculation is made to determine the percentage by which the kinase activity is inhibited at a fixed inhibitor concentration of 1 μM. The maximum activity is determined by non-inhibited kinase. The minimum activity or nonspecific background activity is determined using a reaction mixture without kinase.
Table 2 summarises the degree of inhibition of the enzyme p38 MAP-kinase—as described hereinbefore—mediated by the compounds according to the invention detailed in the section “Preparation of the final compounds”.

[2] = molecular target: cytochrome P450 2C9 (Homo sapiens, UniProt P11712); experiment: Determining the cyp2C9 activity (O-demethylation of [O-methyl-14C]-naproxen); format: in vitro ADME; details: human recombinant cytochrome P450 2C9; 37° C.; <0.4 μM when inhibition >50% at lowest concentration; read-out: CYP 2C9 IC50
Description: Determining the cyp2C9 Activity:
The assay is carried out in a robot system with 96-well plates. The final incubation volume is 200 μl of TRIS-Puffer (0.1 M), magnesium chloride (5 mM), recombinant protein (40 pmol/ml), ^14C-labelled naproxen (80 μM) and the test compound in one of 4 concentrations (50 μM, 10 μM, 2 μM and 0.4 μM) as a duplicate in each case. After a short preincubation period the reactions are started by the addition of the cofactor (NADPH, 1 mM) and ended after 15 min by the addition of 50 μl of a 10% aqueous trichloroacetic acid solution. One aliquot of the incubate is transferred onto a 96-well solid phase extraction plate and extracted. The ^14C-formaldehyde formed during the reaction is not retained on the solid phase extraction plate and is thus separated from the unmetabolised substrate by washing the solid phase extraction plate with water. One aliquot of the eluate is transferred into a well plate suitable for liquid scintillation. […] The IC50 is determined by the least squares method using the following formula: control activity=(100% control activity/(1+(I/IC50)S))−B where I=Inhibitor concentration S=Pitch B=Background activity
When the inhibition of the reaction is >50% even at the lowest concentration of the test compound, the IC50 is given as <0.4 μM.

[3] = Determining the solubility (saturated solution in McIlvaine buffer pH 7.4, UV spectroscopy); format: physicochemical; details: pH 7.4, aqueous buffer, thermodynamic from solid, shaken 2 hours, 0.75 mg solid in 0.75 ml
Description: Determining the Solubility:
Saturated solutions are prepared in suitable well dishes by adding 0.75 ml of a McIlvaine buffer (pH 7.4) to the well in question containing 0.75 mg of solid of an active substance. The wells are shaken for 2 hours and then filtration is carried out through a suitable filter membrane (typically polytetrafluoroethylene with a pore size of 0.45 μm). Filter absorption is prevented by discarding the first few drops of filtrate. The amount of active substance dissolved is determined by UV spectroscopy.

Sequence of p38 MAP-kinase (Q16539 whole entry): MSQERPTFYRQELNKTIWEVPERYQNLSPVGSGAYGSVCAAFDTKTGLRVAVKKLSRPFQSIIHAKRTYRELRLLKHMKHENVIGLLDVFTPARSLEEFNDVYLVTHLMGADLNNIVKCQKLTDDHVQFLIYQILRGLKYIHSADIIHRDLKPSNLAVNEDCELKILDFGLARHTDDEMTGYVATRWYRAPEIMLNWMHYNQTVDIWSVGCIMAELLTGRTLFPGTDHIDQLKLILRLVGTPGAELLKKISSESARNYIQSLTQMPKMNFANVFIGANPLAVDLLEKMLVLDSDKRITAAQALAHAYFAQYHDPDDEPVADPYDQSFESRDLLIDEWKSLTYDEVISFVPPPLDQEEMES
Sequence of cytochrome P450 2C9 (P11712 whole entry): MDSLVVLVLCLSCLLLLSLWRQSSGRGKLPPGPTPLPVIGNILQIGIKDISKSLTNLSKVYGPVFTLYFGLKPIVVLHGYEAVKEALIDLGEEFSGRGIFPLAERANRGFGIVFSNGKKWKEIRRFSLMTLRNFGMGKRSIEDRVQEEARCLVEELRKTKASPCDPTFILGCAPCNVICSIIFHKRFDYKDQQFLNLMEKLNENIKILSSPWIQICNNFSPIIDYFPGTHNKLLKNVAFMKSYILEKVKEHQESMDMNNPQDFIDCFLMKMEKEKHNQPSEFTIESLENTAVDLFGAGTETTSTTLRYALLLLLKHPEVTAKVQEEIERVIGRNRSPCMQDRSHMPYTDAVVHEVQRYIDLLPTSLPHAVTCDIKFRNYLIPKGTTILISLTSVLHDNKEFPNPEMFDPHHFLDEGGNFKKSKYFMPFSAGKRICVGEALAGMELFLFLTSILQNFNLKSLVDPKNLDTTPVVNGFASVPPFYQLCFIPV

COc1c(NC(=O)c2cc3cccc(CN4CCN(C(=O)[C@@H]5CCCN5C)CC4)c3n2C)cc(C(C)(C)C)cc1NS(C)(=O)=O [1(1), (S)-1-methyl-7-[4-(1-methyl-pyrrolidine-2-carbonyl)-piperazin-1-ylmethyl]-1H-indole-2-carboxylic acid(5-tert-butyl-3-methanesulphonylamino-2-methoxy-phenyl)-amide]
inhibition at 1 µM [1]: 99.6% | IC50 [2]: 2130 nM | solubility at 2 h [3]: 340 µg/mL (≈ 532 µM)

COc1c(NC(=O)c2cc3cccc(CN4CCN(C(=O)C5CN(C)C5)CC4)c3n2C)cc(C(C)(C)C)cc1NS(C)(=O)=O [1(2), 1-methyl-7-[4-(1-methyl-azetidine-3-carbonyl)-piperazin-1-ylmethyl]-1H-indole-2-carboxylic acid(5-tert-butyl-3-methanesulphonylamino-2-methoxy-phenyl)-amide]
inhibition at 1 µM [1]: 98.5% | IC50 [2]: 1340 nM | solubility at 2 h [3]: 59 µg/mL (≈ 94.4 µM)

COc1c(NC(=O)c2cc3cccc(CN4CCN(C(=O)[C@H]5CCCN5C)CC4)c3n2C)cc(C(C)(C)C)cc1NS(C)(=O)=O [1(3), (R)-1-methyl-7-[4-(1-methyl-pyrrolidine-2-carbonyl)-piperazin-1-ylmethyl]-1H-indole-2-carboxylic acid(5-tert-butyl-3-methanesulphonylamino-2-methoxy-phenyl)-amide]
inhibition at 1 µM [1]: 99.1% | IC50 [2]: 1040 nM | solubility at 2 h [3]: 160 µg/mL (≈ 250 µM)

COc1c(NC(=O)c2cc3cccc(CN4CCN(C(=O)[C@@H]5CCCN5)CC4)c3n2C)cc(C(C)(C)C)cc1NS(C)(=O)=O [1(4), (S)-1-methyl-7-[4-(pyrrolidine-2-carbonyl)-piperazin-1-ylmethyl]-1H-indole-2-carboxylic acid(5-tert-butyl-3-methanesulphonylamino-2-methoxy-phenyl)-amide]
inhibition at 1 µM [1]: 99.2% | IC50 [2]: 890 nM | solubility at 2 h [3]: 100 µg/mL (≈ 160 µM)

COc1c(NC(=O)c2cc3cccc(CN4CCN(C(=O)C5CCN5C)CC4)c3n2C)cc(C(C)(C)C)cc1NS(C)(=O)=O (stereo not drawn) [1(5), 1-methyl-7-[4-(1-methyl-azetidine-2-carbonyl)-piperazin-1-ylmethyl]-1H-indole-2-carboxylic acid(5-tert-butyl-3-methanesulphonylamino-2-methoxy-phenyl)-amide]
inhibition at 1 µM [1]: 99% | IC50 [2]: 1630 nM | solubility at 2 h [3]: 670 µg/mL (≈ 1070 µM)

COc1c(NC(=O)c2cc3cccc(CC4CCN(C(=O)[C@H]5CCCN5C)CC4)c3n2C)cc(C(C)(C)C)cc1NS(C)(=O)=O [1(6), (R)-1-methyl-7-[1-(1-methyl-pyrrolidine-2-carbonyl)-piperidin-4-ylmethyl]-1H-indole-2-carboxylic acid(5-tert-butyl-3-methanesulphonylamino-2-methoxy-phenyl)-amide]
inhibition at 1 µM [1]: 99.3% | IC50 [2]: 1430 nM | solubility at 2 h [3]: 560 µg/mL (≈ 878 µM)

COc1c(NC(=O)c2cc3cccc(CC4CCN(C(=O)[C@@H]5CCCN5C)CC4)c3n2C)cc(C(C)(C)C)cc1NS(C)(=O)=O [1(7), (S)-1-methyl-7-[1-(1-methyl-pyrrolidine-2-carbonyl)-piperidin-4-ylmethyl]-1H-indole-2-carboxylic acid(5-tert-butyl-3-methanesulphonylamino-2-methoxy-phenyl)-amide]
inhibition at 1 µM [1]: 98.9% | IC50 [2]: 780 nM | solubility at 2 h [3]: 170 µg/mL (≈ 267 µM)

COc1c(NC(=O)c2cc3cccc(CN4CCN(C(=O)[C@@H]5C[C@@H](O)CN5C)CC4)c3n2C)cc(C(C)(C)C)cc1NS(C)(=O)=O [1(8), 7-[4-((2S,4R)-4-hydroxy-1-methyl-pyrrolidine-2-carbonyl)-piperazin-1-ylmethyl]-1-methyl-1H-indole-2-carboxylic acid(5-tert-butyl-3-methanesulphonylamino-2-methoxy-phenyl)-amide]
inhibition at 1 µM [1]: 98.9% | IC50 [2]: 1020 nM | solubility at 2 h [3]: 84 µg/mL (≈ 128 µM)

COc1c(NC(=O)c2cc3cccc(CN4CCN(C(=O)[C@H]5C[C@@H](OC)CN5C)CC4)c3n2C)cc(C(C)(C)C)cc1NS(C)(=O)=O [1(9), 7-[4-((2R,4R)-4-methoxy-1-methyl-pyrrolidine-2-carbonyl)-piperazin-1-ylmethyl]-1-methyl-1H-indole-2-carboxylic acid(5-tert-butyl-3-methanesulphonylamino-2-methoxy-phenyl)-amide]
inhibition at 1 µM [1]: 98.9% | IC50 [2]: 1120 nM | solubility at 2 h [3]: 440 µg/mL (≈ 658 µM)

COc1c(NC(=O)c2cc3cccc(CN4CCN(C(=O)[C@H]5C[C@@H](O)CN5C)CC4)c3n2C)cc(C(C)(C)C)cc1NS(C)(=O)=O [1(10), 7-[4-((2R,4R)-4-hydroxy-1-methyl-pyrrolidine-2-carbonyl)-piperazin-1-ylmethyl]-1-methyl-1H-indole-2-carboxylic acid(5-tert-butyl-3-methanesulphonylamino-2-methoxy-phenyl)-amide]
inhibition at 1 µM [1]: 99.6% | IC50 [2]: 410 nM | solubility at 2 h [3]: 43 µg/mL (≈ 65.7 µM)

COc1c(NC(=O)c2cc3cccc(CN4CCN(C(=O)[C@H]5C[C@H](O)CN5C)CC4)c3n2C)cc(C(C)(C)C)cc1NS(C)(=O)=O [1(11), 7-[4-((2R,4S)-4-hydroxy-1-methyl-pyrrolidine-2-carbonyl)-piperazin-1-ylmethyl]-1-methyl-1H-indole-2-carboxylic acid(5-tert-butyl-3-methanesulphonylamino-2-methoxy-phenyl)-amide]
inhibition at 1 µM [1]: 99.2% | IC50 [2]: 410 nM | solubility at 2 h [3]: 45 µg/mL (≈ 68.7 µM)

COc1c(NC(=O)c2cc3cccc(CN4CCN(C(=O)[C@@H]5C[C@H](O)CN5C)CC4)c3n2C)cc(C(C)(C)C)cc1NS(C)(=O)=O [1(12), 7-[4-((2S,4S)-4-hydroxy-1-methyl-pyrrolidine-2-carbonyl)-piperazin-1-ylmethyl]-1-methyl-1H-indole-2-carboxylic acid(5-tert-butyl-3-methanesulphonylamino-2-methoxy-phenyl)-amide]
inhibition at 1 µM [1]: 98.9% | IC50 [2]: 1550 nM | solubility at 2 h [3]: 140 µg/mL (≈ 214 µM)

COc1c(NC(=O)c2cc3cccc(CN4CCN(C(=O)C(C)N5CCCC5)CC4)c3n2C)cc(C(C)(C)C)cc1NS(C)(=O)=O (stereo not drawn) [1(13), 1-methyl-7-[4-(2-pyrrolidin-1-yl-propionyl)-piperazin-1-ylmethyl]-1H-indole-2-carboxylic acid-(5-tert-butyl-3-methanesulphonylamino-2-methoxy-phenyl)-amide]
inhibition at 1 µM [1]: 98.7% | IC50 [2]: 560 nM | solubility at 2 h [3]: 40 µg/mL (≈ 61.3 µM)

COc1c(NC(=O)c2cc3cccc(CN4CCN(C(=O)CN5CCN(C(C)C)CC5)CC4)c3n2C)cc(C(C)(C)C)cc1NS(C)(=O)=O [1(14), 7-{4-[2-(4-isopropyl-piperazin-1-yl)-acetyl]-piperazin-1-ylmethyl}-1-methyl-1H-indole-2-carboxylic acid-(5-tert-butyl-3-methanesulphonylamino-2-methoxy-phenyl)-amide]
inhibition at 1 µM [1]: 99.1% | IC50 [2]: 630 nM | solubility at 2 h [3]: 120 µg/mL (≈ 172 µM)

COc1c(NC(=O)c2cc3cccc(CN4CCN(C(=O)[C@@H]5CCCN5C)CC4)c3n2C)cc(C(C)(C)C)cc1[S+](C)[O-] (stereo partly drawn) [11(3), 1-methyl-7-[4-((2S)-1-methyl-pyrrolidine-2-carbonyl)-piperazin-1-ylmethyl]-1H-indole-2-carboxylic acid-(5-tert-butyl-3-methanesulphinyl-2-methoxy-phenyl)-amide]
p38 (% Inh @ 1 μM) [1]: 99.0% and 98.7% | inhibition at 1 µM [1]: 98.6% | IC50 [2]: 780 nM and 870 nM and 560 nM
